Data published in patent US6337417B1, “N-phenyltetrahydrophthalamic acid derivatives, methods of producing same, and herbicides containing same as effective components” (Central Glass Co., Ltd., priority 1994, dated 2002).

Legend:
Type in all cases: in vivo
Parameters in all cases: key: 5: completely killed; 4: seriously injured; 3: considerably injured; 2: somewhat injured; 1: slightly injured; 0: not injured (normally grown)
paddy rice = test: Experiment 4 flooded soil treatment: injury to paddy rice; settings: 4 weeks after treatment
Procedure, shortened: (§1)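 Clay-loam paddy soil was sown with mixed weed seeds, planted with 2–3-leaf rice seedlings at 2 cm depth and flooded to 3 cm. After 3 days, at early barnyardgrass germination, a set amount of compound as a diluted aqueous solution was dropped into the water. Herbicidal effect and rice injury were scored 4 weeks after treatment under glass.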

[1] = test system: cockspur (Panicum crus-galli); test: Experiment 5 foliage treatment: cockspur; settings: foliage spray of wettable powder suspension, evaluated 4 weeks after treatment
Procedure, shortened: (§2)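 Compounds sprayed as wettable powder suspension onto pot-grown plants at the two- to three-leaf stage. Plants kept in a glasshouse and herbicidal effect scored 4 weeks after treatment.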

[2] = test system: onamomi (heartleaf cocklebur, Xanthium strumarium); test: Experiment 6 foliage treatment: onamomi; settings: foliage spray of wettable powder suspension, evaluated 4 weeks after treatment
Description: (§3) Upon seedling stage (two- or three-leaved stage) of ichibi (velvetleaf, Abutilon theophrasti), onamomi (heartleaf cocklebur, Xanthium strumarium) (4 L stage), noasagao (blue morningglory, Ipomoea indica) and ooinutade (pale smartweed, Persicaria lapathifolia) which were grown on a cultivated soil put in pots of 1/8850 ares, a selected compound obtained in a manner analogous to Example 11, in suspended wettable powder, was sprayed to each plant. After that, the pots were kept in a glass chamber to allow each plant to grow, and after the lapse of 4 weeks from the treatment with the selected compounds the herbicidal effects were evaluated. The evaluation of the herbicidal effects was similarly conducted as that of Experiment 1.

[3] = test system: aobiyu (slender amaranth, Amaranthus viridis); test: Experiment 5 foliage treatment: aobiyu; settings: foliage spray of wettable powder suspension, evaluated 4 weeks after treatment
Procedure, shortened: as §2

[4] = test system: mehishiba (henry crabgrass, Digitaria cliaris); test: Experiment 5 foliage treatment: mehishiba; settings: foliage spray of wettable powder suspension, evaluated 4 weeks after treatment
Procedure, shortened: as §2

garden radish = test: Experiment 5 foliage treatment: garden radish; settings: foliage spray of wettable powder suspension, evaluated 4 weeks after treatment
Procedure, shortened: as §2

[5] = test system: ichibi (velvetleaf, Abutilon theophrasti); test: Experiment 6 foliage treatment: ichibi; settings: foliage spray of wettable powder suspension, evaluated 4 weeks after treatment
Description: as §3

[6] = test system: ooinutade (pale smartweed, Persicaria lapathifolia); test: Experiment 6 foliage treatment: ooinutade; settings: foliage spray of wettable powder suspension, evaluated 4 weeks after treatment
Description: as §3

broad-leaved weeds = test: Experiment 4 flooded soil treatment: broad-leaved weeds; settings: 4 weeks after treatment
Procedure, shortened: as §1

[7] = test system: hotarui (bulrush, Scirpus juncoides); test: Experiment 4 flooded soil treatment: hotarui; settings: 4 weeks after treatment
Procedure, shortened: as §1

[8] = test system: noasagao (blue morningglory, Ipomoea indica); test: Experiment 6 foliage treatment: noasagao; settings: foliage spray of wettable powder suspension, evaluated 4 weeks after treatment
Description: as §3

[9] = test system: tamagayatsuri (small-flowered umbrellaplant, Cyperus difformis); test: Experiment 4 flooded soil treatment: tamagayatsuri; settings: 4 weeks after treatment
Procedure, shortened: as §1

[10] = test system: nobie (barnyardgrass, Echinochloa spp.); test: Experiment 4 flooded soil treatment: nobie; settings: 4 weeks after treatment
Procedure, shortened: as §1

rice = test: Experiment 5 foliage treatment: rice; settings: foliage spray of wettable powder suspension, evaluated 4 weeks after treatment
Procedure, shortened: as §2

Compound | Injury of Paddy (paddy rice; 3.13 g/10a) | Injury of Paddy (paddy rice; 6.25 g/10a) | Herbicidal Effect cockspur ([1]; 40 g/10a) | Herbicidal Effect cockspur ([1]; 80 g/10a) | Herbicidal Effect onamomi ([2]; 4 g/10a) | Herbicidal Effect onamomi ([2]; 8 g/10a) | Herbicidal Effect aobiyu ([3]; 40 g/10a) | Herbicidal Effect aobiyu ([3]; 80 g/10a) | Herbicidal Effect mehishiba ([4]; 40 g/10a) | Herbicidal Effect mehishiba ([4]; 80 g/10a) | Herbicidal Effect garden radish (garden radish; 40 g/10a) | Herbicidal Effect garden radish (garden radish; 80 g/10a) | Herbicidal Effect ichibi ([5]; 4 g/10a) | Herbicidal Effect ichibi ([5]; 8 g/10a) | Herbicidal Effect ooinutade ([6]; 4 g/10a) | Herbicidal Effect ooinutade ([6]; 8 g/10a) | Herbicidal Effect broad-leaved weed (broad-leaved weeds; 3.13 g/10a) | Herbicidal Effect broad-leaved weed (broad-leaved weeds; 6.25 g/10a) | Herbicidal Effect hotarui ([7]; 3.13 g/10a) | Herbicidal Effect hotarui ([7]; 6.25 g/10a) | further results
COC(=O)C1=C(C(=O)N(C(=O)c2cccnc2)c2cc(C(=O)OC)c(Cl)cc2F)CCCC1 [compound 64] | 0 | 0.5 | 1 | 1 | 4 | 5 | 5 | 5 | 1 | 2 | 5 | 5 | 5 | 5 | 5 | 5 | 5 | 5 | 4 | 4 | Herbicidal Effect noasagao ([8]; 4 g/10a): 4; Herbicidal Effect noasagao ([8]; 8 g/10a): 5; Herbicidal Effect tamagayatsuri ([9]; 3.13 g/10a): 4; Herbicidal Effect tamagayatsuri ([9]; 6.25 g/10a): 4; Herbicidal Effect nobie ([10]; 3.13 g/10a): 5; Herbicidal Effect nobie ([10]; 6.25 g/10a): 5; Herbicidal Effect rice (rice; 40 g/10a): 1; Herbicidal Effect rice (rice; 80 g/10a): 1
C#CC(C)Oc1cc(N(C(=O)C2=C(C(=O)OC)CCCC2)C(=O)c2cncc(C(=O)OC)c2)c(F)cc1Cl (stereo not drawn) [compound 67] | 0.5 | 0.5 | 1 | 1 | 4 | 5 | 5 | 5 | 1 | 1 | 5 | 5 | 5 | 5 | 5 | 5 | 5 | 5 | 4 | 5 | Herbicidal Effect noasagao ([8]; 4 g/10a): 5; Herbicidal Effect noasagao ([8]; 8 g/10a): 5; Herbicidal Effect tamagayatsuri ([9]; 3.13 g/10a): 5; Herbicidal Effect tamagayatsuri ([9]; 6.25 g/10a): 5; Herbicidal Effect nobie ([10]; 3.13 g/10a): 5; Herbicidal Effect nobie ([10]; 6.25 g/10a): 5; Herbicidal Effect rice (rice; 40 g/10a): 1; Herbicidal Effect rice (rice; 80 g/10a): 1
N-[4-chloro-2-fluoro-5-(1-methylpropargyloxy)phenyl]-N-nicotinyl-3,4,5,6-tetrahydrophthalamic acid methyl ester [compound 57] | 0 | 0.5 | 1 | 3 | 4 | 4 | 5 | 5 | 4 | 4 | 5 | 5 | 5 | 5 | 5 | 5 | 5 | 5 | 4.5 | 4.5 | Herbicidal Effect noasagao ([8]; 4 g/10a): 4; Herbicidal Effect noasagao ([8]; 8 g/10a): 4; Herbicidal Effect tamagayatsuri ([9]; 3.13 g/10a): 5; Herbicidal Effect tamagayatsuri ([9]; 6.25 g/10a): 5; Herbicidal Effect nobie ([10]; 3.13 g/10a): 5; Herbicidal Effect nobie ([10]; 6.25 g/10a): 5; Herbicidal Effect rice (rice; 40 g/10a): 1; Herbicidal Effect rice (rice; 80 g/10a): 1
